# Tested on: 941728-121-R-J1-PDC complex spheroid viability
# Assay: Anticancer human tumor 941728-121-R-J1-PDC patient-derived lung adenocarcinoma cell line growth inhibition [RAS]
# Conditions: for IC50: curve of first compound; for viability, T/C: stronger effect = lower value
# Procedure, shortened: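 Agents were tested in combination matrices in half-log decrements from a top concentration at or near clinical Cmax (10 microM if undetermined). Targets were multi-cell spheroids of tumour lines plus HUVEC and MSC stromal cells.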
# 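Also: spheroids exposed to compounds for 7 days before readout.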
# 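For viability, T/C in this document: 100% = DMSO vehicle control viability.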
structure (smiles),measurement,setting,value
CC(=O)OC12COC1CC(O)C1(C)C(=O)C(O)C3=C(C)C(OC(=O)C(O)C(NC(=O)OC(C)(C)C)c4ccccc4)CC(O)(C(OC(=O)c4ccccc4)C21)C3(C)C (centres undefined) + C#Cc1c(F)ccc2cc(O)cc(-c3ncc4c(N5CC6CCC(C5)N6)nc(OCC56CCCN5CC(F)C6)nc4c3F)c12,IC50,second compound 0.0316 µM,< 31.6 nM
same,IC50,second compound 0.1 µM,< 31.6 nM
same,IC50,second compound 0.316 µM,< 31.6 nM
same,IC50,second compound 1 µM,< 31.6 nM
same,IC50,second compound 3.16 µM,< 31.6 nM
same,IC50,second compound 10 µM,< 31.6 nM
same,"viability, T/C","second compound 0.0316 µM, first compound 0.0316 µM",39.9%
same,"viability, T/C","second compound 0.0316 µM, first compound 0.1 µM",39.7%
same,"viability, T/C","second compound 0.0316 µM, first compound 0.316 µM",39.7%
same,"viability, T/C","second compound 0.0316 µM, first compound 1 µM",37.6%
same,"viability, T/C","second compound 0.0316 µM, first compound 3.16 µM",42.7%
same,"viability, T/C","second compound 0.0316 µM, first compound 10 µM",41.7%
same,"viability, T/C","second compound 0.1 µM, first compound 0.0316 µM",41.8%
same,"viability, T/C","second compound 0.1 µM, first compound 0.1 µM",36.1%
same,"viability, T/C","second compound 0.1 µM, first compound 0.316 µM",30.3%
same,"viability, T/C","second compound 0.1 µM, first compound 1 µM",41.6%
same,"viability, T/C","second compound 0.1 µM, first compound 3.16 µM",38.2%
same,"viability, T/C","second compound 0.1 µM, first compound 10 µM",39.1%
same,"viability, T/C","second compound 0.316 µM, first compound 0.0316 µM",30.5%
same,"viability, T/C","second compound 0.316 µM, first compound 0.1 µM",36.8%
same,"viability, T/C","second compound 0.316 µM, first compound 0.316 µM",32.6%
same,"viability, T/C","second compound 0.316 µM, first compound 1 µM",31.2%
same,"viability, T/C","second compound 0.316 µM, first compound 3.16 µM",33.3%
same,"viability, T/C","second compound 0.316 µM, first compound 10 µM",36.7%
same,"viability, T/C","second compound 1 µM, first compound 0.0316 µM",30.6%
same,"viability, T/C","second compound 1 µM, first compound 0.1 µM",32.3%
same,"viability, T/C","second compound 1 µM, first compound 0.316 µM",27.8%
same,"viability, T/C","second compound 1 µM, first compound 1 µM",24.6%
same,"viability, T/C","second compound 1 µM, first compound 3.16 µM",28.1%
same,"viability, T/C","second compound 1 µM, first compound 10 µM",31%
same,"viability, T/C","second compound 3.16 µM, first compound 0.0316 µM",22.9%
same,"viability, T/C","second compound 3.16 µM, first compound 0.1 µM",26.7%
same,"viability, T/C","second compound 3.16 µM, first compound 0.316 µM",23.2%
same,"viability, T/C","second compound 3.16 µM, first compound 1 µM",21.7%
same,"viability, T/C","second compound 3.16 µM, first compound 3.16 µM",22.8%
same,"viability, T/C","second compound 3.16 µM, first compound 10 µM",25.7%
same,"viability, T/C","second compound 10 µM, first compound 0.0316 µM",16.2%
same,"viability, T/C","second compound 10 µM, first compound 0.1 µM",14.9%
same,"viability, T/C","second compound 10 µM, first compound 0.316 µM",14.1%
same,"viability, T/C","second compound 10 µM, first compound 1 µM",14%
same,"viability, T/C","second compound 10 µM, first compound 3.16 µM",15.3%
same,"viability, T/C","second compound 10 µM, first compound 10 µM",16%
CCN1CCN(Cc2ccc(Nc3ncc(F)c(-c4cc(F)c5nc(C)n(C(C)C)c5c4)n3)nc2)CC1 + CCn1c(-c2cc(N3CCN(C)CC3)cnc2C(C)OC)c2c3cc(ccc31)-c1csc(n1)CC(NC(=O)C1CC1C)C(=O)N1CCCC(N1)C(=O)OCC(C)(C)C2,IC50,second compound 0.000949 µM,< 3.16 nM
same,IC50,second compound 0.003 µM,< 3.16 nM
same,IC50,second compound 0.00949 µM,< 3.16 nM
same,IC50,second compound 0.03 µM,< 3.16 nM
same,IC50,second compound 0.0949 µM,< 3.16 nM
same,IC50,second compound 0.3 µM,< 3.16 nM
same,"viability, T/C","second compound 0.000949 µM, first compound 0.00316 µM",27%
same,"viability, T/C","second compound 0.000949 µM, first compound 0.01 µM",29.4%
same,"viability, T/C","second compound 0.000949 µM, first compound 0.0316 µM",18.9%
same,"viability, T/C","second compound 0.000949 µM, first compound 0.1 µM",27.1%
same,"viability, T/C","second compound 0.000949 µM, first compound 0.316 µM",23.3%
same,"viability, T/C","second compound 0.000949 µM, first compound 1 µM",16.6%
same,"viability, T/C","second compound 0.003 µM, first compound 0.00316 µM",22.8%
same,"viability, T/C","second compound 0.003 µM, first compound 0.01 µM",19.8%
same,"viability, T/C","second compound 0.003 µM, first compound 0.0316 µM",14.4%
same,"viability, T/C","second compound 0.003 µM, first compound 0.1 µM",18.9%
same,"viability, T/C","second compound 0.003 µM, first compound 0.316 µM",17.7%
same,"viability, T/C","second compound 0.003 µM, first compound 1 µM",9.4%
same,"viability, T/C","second compound 0.00949 µM, first compound 0.00316 µM",15.1%
same,"viability, T/C","second compound 0.00949 µM, first compound 0.01 µM",13.4%
same,"viability, T/C","second compound 0.00949 µM, first compound 0.0316 µM",13.7%
same,"viability, T/C","second compound 0.00949 µM, first compound 0.1 µM",11.1%
same,"viability, T/C","second compound 0.00949 µM, first compound 0.316 µM",12.1%
same,"viability, T/C","second compound 0.00949 µM, first compound 1 µM",10.4%
same,"viability, T/C","second compound 0.03 µM, first compound 0.00316 µM",13.2%
same,"viability, T/C","second compound 0.03 µM, first compound 0.01 µM",14.1%
same,"viability, T/C","second compound 0.03 µM, first compound 0.0316 µM",11.8%
same,"viability, T/C","second compound 0.03 µM, first compound 0.1 µM",10.1%
same,"viability, T/C","second compound 0.03 µM, first compound 0.316 µM",6.16%
same,"viability, T/C","second compound 0.03 µM, first compound 1 µM",11.3%
same,"viability, T/C","second compound 0.0949 µM, first compound 0.00316 µM",13.4%
same,"viability, T/C","second compound 0.0949 µM, first compound 0.01 µM",11.8%
same,"viability, T/C","second compound 0.0949 µM, first compound 0.0316 µM",10.1%
same,"viability, T/C","second compound 0.0949 µM, first compound 0.1 µM",9.14%
same,"viability, T/C","second compound 0.0949 µM, first compound 0.316 µM",7.16%
same,"viability, T/C","second compound 0.0949 µM, first compound 1 µM",9.08%
same,"viability, T/C","second compound 0.3 µM, first compound 0.00316 µM",11.3%
same,"viability, T/C","second compound 0.3 µM, first compound 0.01 µM",11.9%
same,"viability, T/C","second compound 0.3 µM, first compound 0.0316 µM",11.7%
same,"viability, T/C","second compound 0.3 µM, first compound 0.1 µM",8.41%
same,"viability, T/C","second compound 0.3 µM, first compound 0.316 µM",6.3%
same,"viability, T/C","second compound 0.3 µM, first compound 1 µM",10.6%

# From PubChem BioAssay AID2060896 (Molecular Pharmacology Branch, DTP, NCI, 2025)
